# Columns and labels:
# [1] = tested on: human monocytes and macrophages; experiment: Cytotoxicity on human monocytes and macrophages (MTT); type: cell-based; conditions: concentration lower than 10 μg/ml
# Protocol: Normal human peripheral blood was heparin-treated and diluted with equal amount of Hank's balanced salt solution (HBSS: Ca^2+ and Mg^2+ free). The diluted blood was put into a centrifuge tube containing therein Ficoll-Hypaque(Sigma, St. Louis, Mo., U.S.A.) layer having a density of 1.077 piled up on Ficoll-Hypaque layer having a density of 1.119, and then centrifuged at 700×g for 30 minutes to obtain monocytes from the layer between Ficoll-Hypaque layer having a density of 1.077 and serum layer, and neutrophils from the layer between Ficoll-Hypaque layer having a density of 1.077 and that having a density of 1.119. The separated cells were washed twice with 4° C. HBSS(Ca^2+ and Mg^2+ free) and suspended in RPMI 1640 medium(Gibco, Grand Island, N.Y., U.S.A.) containing 10% fetal bovine serum(FBS, Hyclone, Logan, Utah, U.S.A.). The suspensions were added to the wells of 24-well incubation plate(Costar, Cambridge, Mass., U.S.A.) and incubated at 37° C. for 2 hours to obtain monocytes, macrophages and neutrophils. […] The cytotoxicity of acanthoic acid was determined by the following procedures. […] 100 μl each of acidified isopropanol(0.04N HCl in isopropanol) was added to the cells in each well to elute formazan produced by the living cells, and optical density (O.D.) was determined at 540 nm by using an ELISA reader (Titertek multiskan Mcc/340)(FIG. 1). […]
# [2] = tested on: collagen in rat pulmonary tissue; experiment: Inhibition of collagen synthesis in rat pulmonary tissues (hydroxyproline); type: in vivo; conditions: rat pulmonary tissue treated with silica, DMSO and acanthoic acid; normal = 100%; FIG. 8
# Protocol: IL-1 and TNF-α are known as cytokines which cause fibrosis and induce collagen synthesis in rat fibroblast(Kang, H. S., et al., Korean. J. Immunol., 14, 193(1992)). For the purpose of confirming the ability of acanthoic acid to suppress the action of IL-1 and TNF-α, its inhibitory effect on the collagen synthesis in rat pulmonary fibroblast and pulmonary tissues was determined. The amount of produced collagen in the culture of rat pulmonary fibroblast was measured by an indirect ELISA method, and that of pulmonary tissue was determined by measuring the concentration of hydroxyproline and calculating the amount of collagen therefrom by using the standard curve of internal control group. Further, for the purpose of determining the amount of synthesized collagen in rat pulmonary tissues, the amount of hydroxyproline was measured as follows. 0.1 to 0.2 g of the rat pulmonary tissue was mixed with 1 ml of PBS and then crushed in a Pyrex tube(Corning, Rochester, N.Y., U.S.A.). […] The resultant was freezed in a freezer, lyophilized in a freeze-dryer(Labconco) and dissolved completely in 1 ml of distilled water. 50 μl of the resulting solution was diluted with 50 μl of distilled water in a microcentrifuge tube. […] O.D. of the sample was measured at 650 nm, and the amount of hydroxyproline in the sample was calculated by employing the standard curve of internal control group.
# [3] = tested on: experimental silicosis in rat; experiment: Experimental silicosis in rat, lung histology; type: in vivo, Sprague-Dawley rat; conditions: silica 50 mg intrabronchial, 10 mg orally twice a week, 12 to 18 weeks, FIG. 9
# Protocol: For the purpose of confirming the in vivo anti-fibrogenic activity of acanthoic acid, an experimental silicosis model was established and the effect of acanthoic acid on the silicosis model when administered thereto was determined.
# Silica was refined by removing any contaminant, e.g., Fe2 O3, therefrom in accordance with the method of Lugano as described in Am. J. Pathol., 109, 27-36(1982) as follows. Silica powder(Sigma, St. Louis, Mo.; the content of the particles having a diameter of 5 μm is at least 80%) was suspended in 1N HCl and the suspension was heated and washed with distilled water. The resultant was sterilized by dry heating at 200° C. for 2 hours and then used in the following experiment.
# A 7 to 8 week-old male Sprague-Dawley rat and a 5-week old female ICR mouse were anesthetized by an intraperitoneal injection of 2 to 5 mg of ketamine chloride. The rat was injected into their bronchia with 50 mg of silica dissolved in 0.5 ml of sterilized PBS and the mouse was injected with 2 mg of silica dissolved in 0.1 ml of sterilized PBS, by using an 1 ml syringe. From the next day after the injection of silica, 10 mg of acanthoic acid was administered orally to the rat and mouse twice a week for a period ranging from 12 to 18 weeks. […]
smiles,measurement,setting,value
"C=C[C@@]1(C)CC=C2C(CCC3[C@](C)(C(=O)O)CCC[C@@]23C)C1 (single isomer, unassigned; (-)) [acanthoic acid, (-)-pimara-9(11),15-diene-19-oic acid]",cytotoxicity,[1],no cytotoxicity
same,decrease of amount of synthesized collagen,[2],about 50%
same,"lung histology, granuloma and fibrosis (experimental silicosis)",[3],only small-sized granulomas which is not coalesce with each other and a slight fibrosis are observed

# — patent US5900434A, “Method for inhibiting the production of interleukin-1 or tumor necrosis factor-α by administering acanthoic acid” (Korea Institute of Science and Technology, priority 1994, dated 1999)
